Data from patent publication US20230248705A1, “ADMINISTRATION OF MODULATORS OF 5-HT AND / OR AMPA RECEPTORS FOR TREATING NEUROLOGICAL CONDITIONS” (THE ROYAL INSTITUTION FOR THE ADVANCEMENT OF …, priority 2020, published 2023).
“Also recorded” adds a separate entry of the source.

How the values were obtained:
male C57BL/6J mice [1] = experiment: direct social interaction test (DSI); format: in vivo
Method: (§1) The increase in social interaction was observed 24 hours after the last injection in two validated paradigms of social behavior: the direct social interaction test (FIG. 1A) and the three-chamber test (FIG. 1B).

male C57BL/6J mice [2] = experiment: three chambers test (TCT); format: in vivo; conditions: repeated LSD 25-35 μg/kg per day for 7 days; vs veh; FIG. 1B
Method: as §1

[3] = system: glutamatergic and serotonergic neurotransmission in the medial prefrontal cortex (mPFC) and in the DRN; experiment: electrophysiological experiments in mPFC and DRN; format: in vivo, mice; conditions: repeated regimen of LSD
[4] = system: mammalian target of rapamycin complex (mTOR); experiment: mTOR phosphorylation in the mPFC; format: in vivo, mice
mice [5] = experiment: light-dark box test after chronic restraint stress; format: in vivo; conditions: repeated LSD 30 μg/kg, FIG. 2A
Method: (§2) A paradigm of repeated stress-induced anxiety-like behavior was employed, in order to mimic anxious states induced by chronic stressor exposure in humans. Chronic restraint stress was chosen for its ability to reliably and relatively quickly induce anxiety-like behavior. Briefly, mice were placed in well ventilated plexiglass restrainers for 2 hours per day, for 15 days, then returned to a horizontal resting position on an open bench. During the procedure, the animals had no access to food and water. Control mice were left undisturbed in their home cage. This regimen duration was chosen given that, in pilot experiments, it represented the minimum duration of restraint stress which exacerbated anxiety-like behavior.
For the light-dark box test, an apparatus consisting of a light, open topped, opaque, plexiglass box (27×27×30 cm) connected to a dark, closed topped, opaque, plexiglass box (18×27×30 cm) was used. The light and dark boxes were connected by a small opening (12×5 cm) which allowed the mouse to cross between the two compartments. The light box was illuminated by a 100 W desk lamp. Each mouse was placed in the illuminated box and observed for 5 min. When the four paws were in the light box, the mouse was considered to be in the light compartment. […]

mice [6] = experiment: novelty suppressed feeding test after chronic restraint stress; format: in vivo; conditions: repeated LSD 30 μg/kg; chronic restraint stress mice vs vehicle-treated stressed mice; FIG. 2B
Method: as §2
This procedure was used to measure neohypophagia (the anxiety-induced inhibition of feeding upon exposure to a novel environment). This test is used to validate the acute effects of putative anxiolytics. Mice were food-deprived for 48-hours; subsequently, each mouse was placed in a brightly illuminated (100 W, 350 Ix) open arena (40×40 cm, white-painted floor with walls 30 cm high), containing standard chow (3 pellets) in the center of the arena. The latency to initiate feeding (in seconds) was used as an index of anxiety-like behavior. […]

dopamine D2 receptor = dopamine D2 receptor (Homo sapiens, UniProt P14416); conditions: read-out: affinity (ki), partial agonist; cited from earlier work
healthy volunteers = conditions: cited from earlier work
[7] = system: 5-HT neurons originating in the Dorsal Raphe Nucleus (DRN); conditions: doses 5-30 μg/kg; mice; cited from earlier work
dopaminergic system = conditions: doses 30-120 μg/kg, 60-120 μg/kg; leading to psychotic-like hallucinogenic symptoms; cited from earlier work
mice [8] = experiment: head-twitches after acute dose; conditions: FIG. 3

dopamine D2 receptor, sequence (P14416 whole entry, species assumed): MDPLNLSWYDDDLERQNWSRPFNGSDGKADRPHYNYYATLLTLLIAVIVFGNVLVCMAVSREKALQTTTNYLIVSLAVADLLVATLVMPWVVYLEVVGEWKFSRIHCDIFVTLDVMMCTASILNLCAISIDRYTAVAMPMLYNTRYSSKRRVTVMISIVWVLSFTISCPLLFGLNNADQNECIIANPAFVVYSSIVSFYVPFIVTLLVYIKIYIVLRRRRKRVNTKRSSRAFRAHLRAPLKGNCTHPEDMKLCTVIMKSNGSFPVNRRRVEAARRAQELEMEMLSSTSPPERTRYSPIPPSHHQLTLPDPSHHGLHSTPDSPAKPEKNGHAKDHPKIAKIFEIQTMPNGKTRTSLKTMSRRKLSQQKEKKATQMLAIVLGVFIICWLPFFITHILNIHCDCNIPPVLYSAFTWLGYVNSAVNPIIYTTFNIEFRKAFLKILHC

**Q.** For `CCN(CC)C(=O)[C@@H]1C=C2c3cccc4[nH]cc(c34)C[C@H]2N(C)C1` [LSD, Lysergic acid diethylamide], which social interaction (male C57BL/6J mice [1]; lower doses 5, 10 μg/kg for 3 days) is on record?
**A.** non-significant increase in social interaction

**Q.** What about the “social interaction / interaction time toward the unfamiliar mouse” value (male C57BL/6J mice [1]; repeated LSD 25-35 μg/kg per day for 7 days, 24 hours after last injection, vs veh (saline), FIG. 1A) of the same compound?
**A.** increased social interaction; also recorded: increases interaction time

**Q.** What about the social behavior (male C57BL/6J mice [1]; single administration, FIG. 1A) of the same compound?
**A.** did not produce any effect on social behavior

**Q.** And the “preference for social novelty / sniffing time toward a novel mouse” value (male C57BL/6J mice [2])?
**A.** promoted the preference for the social novelty; also recorded: promotes preference for social novelty

**Q.** And the “glutamatergic and serotonergic neurotransmission” value [3]?
**A.** potentiates both glutamatergic and serotonergic neurotransmission

**Q.** What about the “phosphorylation levels of mTOR” value [4] of the same compound?
**A.** increased the phosphorylation levels

**Q.** What about the “anxiety-like behavior: number of transitions between light and dark compartments” value (mice [5]) of the same compound?
**A.** prevents chronic stress-induced anxiety-like behavior; also recorded: number of entries similar to the control mice treated with the vehicle; also recorded: normalized the transition between the dark and the light compartment

**Q.** And the “anxiety-like behavior: latency to feed” value (mice [6])?
**A.** prevents chronic stress-induced anxiety-like behavior; also recorded: reduced latency to feed; also recorded: decreased latency to feed

**Q.** And the Ki (dopamine D2 receptor)?
**A.** 25 nM

**Q.** What about the “optimism, mood and trait openness” value (healthy volunteers; 2 weeks after LSD administration) of the same compound?
**A.** increased optimism, mood and trait openness

**Q.** And the “mood and social effects” value (healthy volunteers; after 200 μg of LSD)?
**A.** Positive mood changes and altruistic/positive social effects

**Q.** And the social behavior (healthy volunteers; healthy volunteers)?
**A.** increase social behavior

**Q.** And the “activity of 5-HT neurons” value [7]?
**A.** decreasing the activity of 5-HT neurons

**Q.** And the dopaminergic system activity (dopaminergic system)?
**A.** inhibit the dopaminergic system

**Q.** What about the “hallucinogenic effects (head-twitches)” value (mice [8]; acute (single) dose 15 μg/kg or less) of the same compound?
**A.** did not provide hallucinogenic effects

**Q.** What about the “adverse events (hallucinations, head twitches)” value (mice [8]; acute (single) dose 30 μg/kg) of the same compound?
**A.** produces adverse events

**Q.** What about the “adverse events (hallucinations, head twitches)” value (mice [8]; acute (single) dose 60 μg/kg) of the same compound?
**A.** produces adverse events

**Q.** And the “head twitches versus dose” value (mice [8]; as an acute (single) dose is increased)?
**A.** increase in head twitches
